Each structure is given as a SMILES string.

The target of one test is Chymotrypsin, bovine (Bos taurus (Bovine), UniProt P00766). The test is described as follows: Chymotrypsin assay. Format: biochemical. The conditions noted are these: substrate S-2586, 37° C., pH 7.2. As to the method:
Materials: Chymotrypsin, bovine, 25 μg (Roche, sequence grade), Substrate S-2586 (Chromogenics, cat. no. 82 08 94)

The next test addresses Recombinant human KLK7 (Homo sapiens (Human), UniProt P49862). The test is described as follows: KLK7 assay. The conditions noted are these: substrate S-2586, 37° C., pH 7.2. Format: biochemical.
For the next test, the target named is Trypsin (Bos taurus (Bovine), UniProt P00760). The test can be described thus: Trypsin assay. Format: biochemical, human. The conditions noted are these: substrate S-2288, 37° C., pH 7.2.
Sequence of Trypsin (P00760 24-246): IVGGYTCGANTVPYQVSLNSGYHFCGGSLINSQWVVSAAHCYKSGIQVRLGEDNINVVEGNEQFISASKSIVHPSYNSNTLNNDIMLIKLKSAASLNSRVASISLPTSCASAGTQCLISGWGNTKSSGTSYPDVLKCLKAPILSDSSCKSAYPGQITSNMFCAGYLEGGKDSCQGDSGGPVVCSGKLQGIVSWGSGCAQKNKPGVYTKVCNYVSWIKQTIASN
The target in another test is Cathepsin G (Homo sapiens (Human), UniProt P08311). The test can be described thus: Cathepsin G assay.
Sequence of Cathepsin G (P08311 21-255): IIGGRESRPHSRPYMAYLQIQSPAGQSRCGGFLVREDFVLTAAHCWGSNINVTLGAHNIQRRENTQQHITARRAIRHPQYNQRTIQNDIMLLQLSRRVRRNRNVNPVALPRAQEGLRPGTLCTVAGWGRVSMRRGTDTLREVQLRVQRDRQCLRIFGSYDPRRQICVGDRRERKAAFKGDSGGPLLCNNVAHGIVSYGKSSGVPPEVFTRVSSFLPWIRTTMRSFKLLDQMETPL
The next test deals with Recombinant human KLK5 (Homo sapiens (Human), UniProt Q9Y337). The test can be described thus: KLK5 assay.
Sequence of Recombinant human KLK5 (Q9Y337 23-293): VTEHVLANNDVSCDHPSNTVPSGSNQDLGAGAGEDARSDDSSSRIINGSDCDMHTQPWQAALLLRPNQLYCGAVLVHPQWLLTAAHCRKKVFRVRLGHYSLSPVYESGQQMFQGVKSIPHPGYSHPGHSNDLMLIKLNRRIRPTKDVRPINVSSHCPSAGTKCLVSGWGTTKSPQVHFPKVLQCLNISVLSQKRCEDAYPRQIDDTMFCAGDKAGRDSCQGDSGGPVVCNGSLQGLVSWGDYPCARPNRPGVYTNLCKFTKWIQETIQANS

Sequence of Recombinant human KLK7 (P49862 30-253): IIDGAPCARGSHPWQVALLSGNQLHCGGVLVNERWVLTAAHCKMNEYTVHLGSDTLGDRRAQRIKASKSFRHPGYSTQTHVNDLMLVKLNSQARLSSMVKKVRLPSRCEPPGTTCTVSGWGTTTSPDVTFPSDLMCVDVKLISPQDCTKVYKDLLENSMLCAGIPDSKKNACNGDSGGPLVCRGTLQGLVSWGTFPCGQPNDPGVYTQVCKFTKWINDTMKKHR
Procedure for Cathepsin G: (§1) IC50 values for a number of substituted 3,1-benzoxazin-4-ones on a panel of human proteases were determined.
Procedure for Recombinant human KLK5: as §1

Broadly, the IC50 is the concentration that gives 50% inhibition. For the compound `CS(=O)(=O)c1ccccc1-c1nc2cc3c(cc2c(=O)o1)OCCCO3` [Compound 10], the IC50 was 200 nM at Chymotrypsin, bovine; 188 nM at Recombinant human KLK7; > 10000 nM against Trypsin.

For `CCOc1cc2c(=O)oc(-c3ccccc3Cl)nc2cc1OC` [Compound 2, 2-(2-chlorophenyl)-6-ethoxy-7-methoxy-3,1-benzoxazin-4-one], the IC50 against Cathepsin G was > 10000 nM; on Chymotrypsin, bovine it was > 10000 nM; at Recombinant human KLK7 it was 73 nM; against Trypsin, > 10000 nM.

As to `COc1ccccc1-c1nc2cc3c(cc2c(=O)o1)OCCCO3` [Compound 6], the IC50 at Chymotrypsin, bovine was < 100 nM; at Recombinant human KLK7, 80 nM; against Trypsin, > 10000 nM.

On to `CSc1ccccc1-c1nc2cc3c(cc2c(=O)o1)OCCCO3` [Compound 9], for which the IC50 was 1300 nM at Cathepsin G, 228 nM at Recombinant human KLK7 and > 10000 nM at Trypsin.

Take `COc1ccc(-c2nc3cc4c(cc3c(=O)o2)OCCCO4)c(OC)c1` [Compound 8]: the IC50 on Chymotrypsin, bovine is < 100 nM; on Recombinant human KLK7, 65 nM; on Trypsin it was > 10000 nM.

For the compound `COc1ccc(-c2nc3cc(OC)c(OC)cc3c(=O)o2)c(OC)c1` [Compound 17], the concentration for half-maximal inhibition (IC50) against Cathepsin G is 100 nM; at Chymotrypsin, bovine, 1200 nM; on Recombinant human KLK5, 1000 nM; on Recombinant human KLK7, 175 nM; at Trypsin, > 10000 nM.

On to `CCOc1cc2c(=O)oc(-c3ccccc3S(C)(=O)=O)nc2cc1OC` [Compound 4], for which the IC50 was 2800 nM on Cathepsin G; > 10000 nM against Chymotrypsin, bovine; 230 nM on Recombinant human KLK7; > 10000 nM on Trypsin.

As to `O=c1oc(-c2ccccc2Cl)nc2cc3c(cc12)OCCO3` [Compound 16], the IC50 against Chymotrypsin, bovine is < 100 nM; on Recombinant human KLK7, 149 nM; against Trypsin, 3700 nM.

As to `COc1cc2nc(-c3ccccc3SC)oc(=O)c2cc1OC` [Compound 12], the results for the IC50 on Recombinant human KLK7 and against Trypsin were 147 nM and > 10000 nM, respectively.

Turning to `CCOc1cc2c(=O)oc(-c3ccc(OC)cc3OC)nc2cc1OC` [Compound 3], the IC50 against Cathepsin G is 1100 nM; at Chymotrypsin, bovine, > 10000 nM; at Recombinant human KLK7, 116 nM; against Trypsin, > 10000 nM.

Regarding `CCOc1cc2c(=O)oc(-c3ccccc3OC)nc2cc1OC` [Compound 5], the IC50 on Cathepsin G was 1200 nM; against Chymotrypsin, bovine it was > 10000 nM; at Recombinant human KLK7, 85 nM; at Trypsin it was > 10000 nM.

On to `COC1=CC=C(c2nc3cc4c(cc3c(=O)o2)OCCO4)C(OC)C1` (stereo not drawn) [Compound 15], for which the IC50 on Chymotrypsin, bovine was < 100 nM; on Recombinant human KLK7 it was 105 nM; against Trypsin, 3700 nM.

For the compound `CS(=O)(=O)c1ccccc1-c1nc2cc3c(cc2c(=O)o1)OCCO3` [Compound 14], the IC50 was < 100 nM at Chymotrypsin, bovine; 600 nM at Recombinant human KLK5; 183 nM on Recombinant human KLK7; 1800 nM against Trypsin.

With `O=c1oc(-c2ccccc2Cl)nc2cc3c(cc12)OCCCO3` [Compound 7], the IC50 at Cathepsin G is 1900 nM; against Chymotrypsin, bovine it was < 100 nM; at Recombinant human KLK7, 90 nM; on Trypsin, > 10000 nM.

With `COc1ccccc1-c1nc2cc3c(cc2c(=O)o1)OCCO3` [Compound 13], the IC50 at Chymotrypsin, bovine is < 100 nM; on Recombinant human KLK7 it was 155 nM; at Trypsin, 1800 nM.

As to `CCOc1cc2c(=O)oc(-c3ccccc3SC)nc2cc1OC` [Compound 1, 6-ethoxy-7-methoxy-2-(2-methylsulfanylphenyl)-3,1-benzoxazin-4-one], the IC50 against Cathepsin G was > 10000 nM; on Chymotrypsin, bovine, > 10000 nM; at Recombinant human KLK7, 48 nM; at Trypsin, > 10000 nM.

Regarding `CC(C)c1ccc(-c2nc3cc4c(cc3c(=O)o2)OCCCO4)c(C(C)C)c1` [Compound 11], the IC50 against Cathepsin G was > 10000 nM; at Chymotrypsin, bovine, 1000 nM; on Recombinant human KLK7, 1370 nM; on Trypsin, > 10000 nM.

`COc1cc2nc(-c3ccccc3I)oc(=O)c2cc1OC` [Compound 18]: the IC50 against Cathepsin G is 1900 nM; on Chymotrypsin, bovine it was > 10000 nM; against Trypsin, > 10000 nM.

The values are drawn from patent US9695194B2, “Benzoxazinone derivatives for treatment of skin diseases” (SIXERA PHARMA AB, priority 2014, dated 2017).
